Experiments:
[1] = doses that provide the targeted effective concentration; cited from earlier work
[2] = tested on: NSCLC; conditions: single agent, after failure of standard therapy for advanced disease, versus placebo; cited from earlier work
[3] = patients with cancer, 150 mg/day; cited from earlier work
[4] = tested on: advanced NSCLC; experiment: open-label, predictive marker identification Phase II study of Tarceva monotherapy; format: in vivo, human
Experimental: The selection of this dose was based on pharmacokinetic parameters, as well as the safety and tolerability profile of this dose observed in Phase I, II and III trials in heavily pre-treated patients with advanced cancer. Drug levels seen in the plasma of patients with cancer receiving the 150 mg/day dose were consistently above the average plasma concentration of 500 ng/ml targeted for clinical efficacy.
This was an open-label, predictive marker identification Phase II study. The study was conducted in approximately 26 sites in about 12 countries. 264 patients with advanced NSCLC following failure of at least one prior chemotherapy regimen were enrolled over a 12 month period. […] Dose reductions were permitted based on tolerability to drug therapy. Clinical and laboratory parameters were assessed to evaluate disease control and toxicity. Treatment continued until disease progression, unacceptable toxicity or death. The study design is depicted in FIG. 1.
The RECIST (Uni-dimensional Tumour Measurement) criteria were used to evaluate response. These criteria can be found under the following link: http://www.eortc.be/recist/
Note that: To be assigned a status of CR or PR, changes in tumour measurements must be confirmed by repeated assessments at least 4 weeks apart at any time during the treatment period.
In the case of SD, follow-up measurements must have met the SD criteria at least once after study entry at a minimum interval of 6 weeks.
In the case of maintained SD, follow-up measurements must have met the SD criteria at least once after study entry with maintenance duration of at least 12 weeks.
A regular status check every 3 months was performed either by a patient's visit to the clinic or by telephone. All deaths were recorded. At the end of the study a definitive confirmation of survival was required for each patient.

[5] = tested on: NSCLC; conditions: second line after cisplatin-based first-line regimens, ECOG 0, 1 or 2, versus best supportive care; cited from earlier work
[6] = tested on: NSCLC; conditions: second line therapy of NSCLC; cited from earlier work
[7] = 75 patients with qRT-PCR results
[8] = 102 patients with microarray data
[9] = all 264 enrolled patients, 150 mg/day oral
[10] = of the 102 patients with microarray data

C#Cc1cccc(Nc2ncnc3cc(OCCOC)c(OCCOC)cc23)c1 [Tarceva, erlotinib]
safety and tolerability [1]: safe and generally well tolerated
survival of NSCLC patients [2]: significantly prolongs and improves the survival
drug levels in plasma [3]: > 500 ng/mL
PD [4, 7]: 52%
partial response (PR) [4, 7]: 5%
Best Response SD, n (%) [4, 8]: 31 (30.4%)
Clinical Benefit YES, n (%) [4, 8]: 21 (20.6%)
clinical benefit (objective response or stable disease for 12 weeks or more) [4, 9]: 31.4%
median overall survival [4, 9]: 7.6 (CI 7-9) months
median progression-free survival [4, 9]: 11.3 (CI 8-12) weeks
patients achieving an objective response ([4]; all 264 enrolled patients, 150 mg/day oral, RECIST): 13.6%
number of partial responders (PR) [4, 10]: 6
number of patients with PD [4, 10]: 49
number of patients with SD [4, 10]: 31
patients achieving a CR [4, 10]: no patients achieving a CR

CC(=O)O[C@@]12CO[C@@H]1C[C@H](O)[C@@]1(C)C(=O)[C@H](O)C3=C(C)[C@@H](OC(=O)[C@H](O)[C@@H](NC(=O)OC(C)(C)C)c4ccccc4)C[C@@](O)([C@@H](OC(=O)c4ccccc4)[C@H]21)C3(C)C [docetaxel]
survival [5]: improved survival

Nc1nc2[nH]cc(CCc3ccc(C(=O)N[C@@H](CCC(=O)O)C(=O)O)cc3)c2c(=O)[nH]1 [pemetrexed]
efficacy compared with docetaxel [6]: clinically equivalent efficacy
side effects compared with docetaxel [6]: significantly fewer side effects

From patent US20110195982A1, “PREDICTIVE MARKER FOR EGFR INHIBITOR TREATMENT” (priority 2007, published 2011)
